# Reference: PMC6028098, “The N-terminal region of photocleavable peptides that bind HLA-DR1 determines the kinetics of fragment release” (PLoS ONE, 2018)
# Where two headings read alike, the source gives them in different places. Ends that are not written are not given here. Peptide text beside a SMILES is read from it.
# Tests used:
# [1] = complex with DR2b, 2 minutes of UV exposure; cited from earlier work
# From the text: In the only previous report in which a photocleavable peptide was used with a MHC-II protein, the complex studied was DR2b (HLA-DRB1*15:01) with a peptide derived from human myelin basic protein (MBP85-99) with the photocleavable group replacing the residue at P4 position (ENPVVHFXKNIVTPR). […] Thus in this case the peptide is cleaved efficiently and the ...
# [2] = molecular target: T1, HLA-DR1 (DRA*01:01/DRB1*01:01) (Homo sapiens, UniProt P01903+P01911, A100R/D57E/F55L/F60I/F76Y/I96L/L162R/M171V/P40L/Q125E/R42F/V115G/Y59C); assay: biochemical; type: binding; settings: for inhibition at 0.000256 µM / inhibition at 0.00128 µM / inhibition at 0.0064 µM / inhibition at 0.032 µM / inhibition at 0.16 µM / inhibition at 0.8 µM / inhibition at 4 µM / inhibition at 20 µM / inhibition at 0.256 µM / inhibition at 1.28 µM / inhibition at 6.4 µM / inhibition at 32 µM / inhibition at 160 µM: read-out: fraction of labeled HA binding inhibited
# T1 construct: HLA-DR1 (DRA*01:01/DRB1*01:01) extracellular domain was expressed in Drosophila S2 cells; made in house
# [3] = molecular target: HLA-DR1 (DRA*01:01/DRB1*01:01) extracellular domain (human); assay: fluorescence polarisation
# DR1 = DR1 (Homo sapiens, UniProt P01903+P01911, A100R/D57E/F55L/F60I/F76Y/I96L/L162R/M171V/P40L/Q125E/R42F/V115G/Y59C); settings: binding to DR1, estimated; cited from earlier work
molecule,measurement,setting,value
ENPVVHFXKNIVTPR,parent peptide after UV exposure,[1],almost undetectable
CSCC[C@H](NC(=O)[C@H](CCC(N)=O)NC(=O)[C@@H](NC(=O)[C@H](Cc1c[nH]cn1)NC(C)=O)C(C)C)C(=O)NC(CC(=O)N[C@@H](CC(N)=O)C(=O)N[C@@H](C)C(=O)N[C@@H](CC(C)C)C(=O)N[C@@H](C)C(=O)N[C@@H](CC(C)C)C(=O)O)c1ccccc1[N+](=O)[O-] (some centres unmarked) [Peptide V1MxN] (HELM PEPTIDE1{[ac].H.V.Q.M.[O=C(CC(N[*:1])c1ccccc1[N+](=O)[O-])[*:2]].N.A.L.A.L}$$$$V2.0),inhibition at 0.000256 µM,[2]; 72 h,-0.0001%
same,inhibition at 0.00128 µM,[2]; 72 h,3%
same,inhibition at 0.0064 µM,[2]; 72 h,5.87%
same,inhibition at 0.032 µM,[2]; 72 h,4.84%
same,inhibition at 0.16 µM,[2]; 72 h,1.29%
same,inhibition at 0.8 µM,[2]; 72 h,10.9%
same,inhibition at 4 µM,[2]; 72 h,34.5%
same,inhibition at 20 µM,[2]; 72 h,92.8%
same,IC50,[2]; SD,5400 ± 341 nM
L1MxN photocleavable peptide (Ac-HLQMxNALAL),IC50,[3],4100 nM
CC(=O)N[C@@H](Cc1ccc(O)cc1)C(=O)N[C@H](C(=O)N[C@@H](CCCCN)C(=O)NC(CC(=O)N[C@@H](CC(N)=O)C(=O)N[C@H](C(=O)N[C@@H](CC(C)C)C(=O)N[C@@H](CCCNC(=N)N)C(=O)N[C@@H](CC(C)C)C(=O)N[C@@H](C)C(=O)N[C@H](C(=O)O)[C@@H](C)O)[C@@H](C)O)c1ccccc1[N+](=O)[O-])C(C)C (some centres unmarked) [Ac-photoHA-Δ1–2],inhibition at 0.256 µM,[2]; 72 h,-1.47%
same,inhibition at 1.28 µM,[2]; 72 h,-1.61%
same,inhibition at 6.4 µM,[2]; 72 h,-1.21%
same,inhibition at 32 µM,[2]; 72 h,3.82%
same,inhibition at 160 µM,[2]; 72 h,39.8%
"Ac-PRYVKQNTLRLAT [HA, reference compound]",inhibition at 0.0064 µM,[2]; 72 h,7.96%
same,inhibition at 0.032 µM,[2]; 72 h,48.7%
same,inhibition at 0.16 µM,[2]; 72 h,70.6%
same,inhibition at 0.256 µM,[2]; 72 h,-1.7%
same,inhibition at 0.8 µM,[2]; 72 h,95%
same,inhibition at 1.28 µM,[2]; 72 h,-1.55%
same,inhibition at 4 µM,[2]; 72 h,99%
same,inhibition at 6.4 µM,[2]; 72 h,-0.259%
same,inhibition at 20 µM,[2]; 72 h,104%
same,inhibition at 32 µM,[2]; 72 h,29.5%
same,inhibition at 160 µM,[2]; 72 h,76.5%
same,IC50,"[2]; competition with 25 nM Alexa488-labeled HA for DR1 (100 nM per method, 150 nM per Fig 7/8 legends), 37°C, 72 h, fluorescence polarization, mean ± SD of two experiments, read-out: IC50",40 nM
CC(=O)N1CCC[C@H]1C(=O)N[C@@H](CCCNC(=N)N)C(=O)N[C@@H](Cc1ccc(O)cc1)C(=O)N[C@H](C(=O)N[C@@H](CCCCN)C(=O)NC(CC(=O)N[C@@H](CC(N)=O)C(=O)N[C@H](C(=O)N[C@@H](CC(C)C)C(=O)N[C@@H](CCCNC(=N)N)C(=O)N[C@@H](CC(C)C)C(=O)N[C@@H](C)C(=O)N[C@H](C(=O)O)[C@@H](C)O)[C@@H](C)O)c1ccccc1[N+](=O)[O-])C(C)C (some centres unmarked) [Ac-photoHA],inhibition at 0.256 µM,[2]; 72 h,-1.71%
same,inhibition at 1.28 µM,[2]; 72 h,-3.02%
same,inhibition at 6.4 µM,[2]; 72 h,-0.583%
same,inhibition at 32 µM,[2]; 72 h,10%
same,inhibition at 160 µM,[2]; 72 h,59%
same,IC50,"[2]; competition with 25 nM Alexa488-labeled HA for DR1 (100 nM per method, 150 nM per Fig 7/8 legends), 37°C, 72 h, fluorescence polarization, mean ± SD of two experiments, SD, read-out: IC50",134 ± 2 nM
"HA306-318: immunodominant viral epitope from influenza virus hemagglutinin (Ac-PRYVKQNTLRLAT; not fully specified (residue 5); also: label on K5, type not given here)",Kd,DR1,13 nM
Y1MxN photocleavable peptide (Ac-YQMxNALAL),IC50,[3],323 nM
V1MxN photocleavable peptide (Ac-HVQMxNALAL),IC50,[3],5400 nM
CSCC[C@H](NC(=O)[C@H](CCC(N)=O)NC(=O)[C@H](CC(C)C)NC(=O)[C@H](Cc1c[nH]cn1)NC(C)=O)C(=O)NC(CC(=O)N[C@@H](CC(N)=O)C(=O)N[C@@H](C)C(=O)N[C@@H](CC(C)C)C(=O)N[C@@H](C)C(=O)N[C@@H](CC(C)C)C(=O)O)c1ccccc1[N+](=O)[O-] (some centres unmarked) [Peptide L1MxN] (HELM PEPTIDE1{[ac].H.L.Q.M.[O=C(CC(N[*:1])c1ccccc1[N+](=O)[O-])[*:2]].N.A.L.A.L}$$$$V2.0),inhibition at 0.000256 µM,[2]; 72 h,-0.215%
same,inhibition at 0.00128 µM,[2]; 72 h,-0.407%
same,inhibition at 0.0064 µM,[2]; 72 h,-1.67%
same,inhibition at 0.032 µM,[2]; 72 h,-1.44%
same,inhibition at 0.16 µM,[2]; 72 h,2.63%
same,inhibition at 0.8 µM,[2]; 72 h,13%
same,inhibition at 4 µM,[2]; 72 h,49.4%
same,inhibition at 20 µM,[2]; 72 h,86.9%
same,IC50,[2]; SD,4100 ± 298 nM
CC(C)C[C@H](NC(=O)[C@H](CCCNC(=N)N)NC(=O)[C@H](CC(C)C)NC(=O)[C@@H](NC(=O)[C@H](CC(N)=O)NC(=O)CC(NC(=O)[C@H](CCCCN)NC(=O)[C@@H](NC(=O)[C@@H](N)Cc1ccc(O)cc1)C(C)C)c1ccccc1[N+](=O)[O-])[C@@H](C)O)C(=O)N[C@@H](C)C(=O)N[C@H](C(=O)O)[C@@H](C)O (some centres unmarked) [photoHA-Δ1–2],inhibition at 0.256 µM,[2]; 72 h,-1.94%
same,inhibition at 1.28 µM,[2]; 72 h,-1.83%
same,inhibition at 6.4 µM,[2]; 72 h,-1.22%
same,inhibition at 32 µM,[2]; 72 h,-0.549%
same,inhibition at 160 µM,[2]; 72 h,9.88%
CC(C)C[C@H](NC(=O)[C@H](CCCNC(=N)N)NC(=O)[C@H](CC(C)C)NC(=O)[C@@H](NC(=O)[C@H](CC(N)=O)NC(=O)CC(NC(=O)[C@H](CCCCN)NC(=O)[C@@H](NC(=O)[C@H](Cc1ccc(O)cc1)NC(=O)[C@H](CCCNC(=N)N)NC(=O)[C@@H]1CCCN1)C(C)C)c1ccccc1[N+](=O)[O-])[C@@H](C)O)C(=O)N[C@@H](C)C(=O)N[C@H](C(=O)O)[C@@H](C)O (some centres unmarked) [photoHA],inhibition at 0.256 µM,[2]; 72 h,-1.65%
same,inhibition at 1.28 µM,[2]; 72 h,-2.9%
same,inhibition at 6.4 µM,[2]; 72 h,-1.3%
same,inhibition at 32 µM,[2]; 72 h,22.2%
same,inhibition at 160 µM,[2]; 72 h,66.3%
same,IC50,[2]; SD,92 ± 2 nM
CSCC[C@H](NC(=O)[C@H](CCC(N)=O)NC(=O)[C@H](Cc1ccc(O)cc1)NC(C)=O)C(=O)NC(CC(=O)N[C@@H](CC(N)=O)C(=O)N[C@@H](C)C(=O)N[C@@H](CC(C)C)C(=O)N[C@@H](C)C(=O)N[C@@H](CC(C)C)C(=O)O)c1ccccc1[N+](=O)[O-] (some centres unmarked) [Peptide Y1MxN] (HELM PEPTIDE1{[ac].Y.Q.M.[O=C(CC(N[*:1])c1ccccc1[N+](=O)[O-])[*:2]].N.A.L.A.L}$$$$V2.0),inhibition at 0.000256 µM,"[2]; 72 h, Fig 2, [Pep] 0.000256 uM, 100 nM DR1, 25 nM Alexa488-labeled HA, 3 days, FP, mean of two experiments in triplicate",-1.47%
same,inhibition at 0.00128 µM,"[2]; 72 h, Fig 2, [Pep] 0.00128 uM, 100 nM DR1, 25 nM Alexa488-labeled HA, 3 days, FP, mean of two experiments in triplicate",4.96%
same,inhibition at 0.0064 µM,"[2]; 72 h, Fig 2, [Pep] 0.0064 uM, 100 nM DR1, 25 nM Alexa488-labeled HA, 3 days, FP, mean of two experiments in triplicate",-1.42%
same,inhibition at 0.032 µM,"[2]; 72 h, Fig 2, [Pep] 0.032 uM, 100 nM DR1, 25 nM Alexa488-labeled HA, 3 days, FP, mean of two experiments in triplicate",13.4%
same,inhibition at 0.16 µM,"[2]; 72 h, Fig 2, [Pep] 0.16 uM, 100 nM DR1, 25 nM Alexa488-labeled HA, 3 days, FP, mean, n = 3",39.7%
same,inhibition at 0.8 µM,"[2]; 72 h, Fig 2, [Pep] 0.8 uM, 100 nM DR1, 25 nM Alexa488-labeled HA, 3 days, FP, mean of two experiments in triplicate",69.7%
same,inhibition at 4 µM,"[2]; 72 h, Fig 2, [Pep] 4 uM, 100 nM DR1, 25 nM Alexa488-labeled HA, 3 days, FP, mean of two experiments in triplicate",90%
same,inhibition at 20 µM,"[2]; 72 h, Fig 2, [Pep] 20 uM, 100 nM DR1, 25 nM Alexa488-labeled HA, 3 days, FP, mean of two experiments in triplicate",96.1%
